# “Also recorded” adds a separate entry of the source.
# How the values were obtained:
# [1] = tested on: primary human CD8+ T-cells; assay: T cell activation, intracellular cytokine staining after CD3/CD28 stimulation; type: cell-based; settings: 10 μM, 1 hour pre-incubation
# SARS-CoV-2 [2] = assay: qPCR of SARS-CoV-2 viral load in non-targeting or PIK3C3 CRISPR-perturbed A549-ACE2 cells treated with PIK3C3 inhibitors; type: cell-based; settings: 10 μM, 2 hours pretreatment, MOI 0.1, 36 hpi
# SARS-CoV-2 [3] = assay: qRT-PCR of SARS-CoV-2 viral load in inhibitor-treated A549-ACE2 cells; type: cell-based, SARS-CoV-2 isolate USA-WA1/2020; settings: 10 μM inhibitor, MOI 0.1, 36 hpi
smiles,measurement,setting,value
"CC[C@H](Nc1ncnc2[nH]cnc12)c1nc2cccc(F)c2c(=O)n1-c1ccccc1 [idelalisib, Idelalisib]",release of interferon-gamma (IFNγ) by CD8+ T-cells,[1],significant reduction
same,release of tumor necrosis factor (TNF) by CD8+ T-cells,[1],significant reduction
"Cc1cc(Nc2cc(Cl)nc(Oc3ccc([N+](=O)[O-])cc3)n2)n[nH]1 [autophinib, Autophinib]",specificity for PIK3C3: viral inhibition in PIK3C3 CRISPR-perturbed versus non-targeting cells,SARS-CoV-2 [2],specific
"CC/C(=C(\c1ccccc1)c1ccc(OCCN(C)C)cc1)c1ccccc1 [tamoxifen, Tamoxifen]",reduction in SARS-CoV-2 viral load (in words),SARS-CoV-2 [3],substantial reduction
same,effect on T-cell activation and cytokine secretion,[1],no effect
Nc1ncc(-c2ccnc(Nc3ccncc3)n2)c(CC2CC2)n1 [PIK-III],specificity for PIK3C3: viral inhibition in PIK3C3 CRISPR-perturbed versus non-targeting cells,SARS-CoV-2 [2],specific
C[C@@H]1COCCN1c1cc(=O)n2c(n1)N(Cc1cncc(Cl)c1)[C@H](C(F)(F)F)CC2 [SAR405],specificity for PIK3C3: viral inhibition in PIK3C3 CRISPR-perturbed versus non-targeting cells,SARS-CoV-2 [2],greater viral inhibition in PIK3C3 CRISPR-perturbed cells; also recorded: may have some off-target effects

# Source: patent publication US20250262268A1, “Methods and Compositions for Inhibiting Viral Infection” (New York Genome Center, Inc., priority 2020, published 2025)
